Measurements reported in paper PMC12827886 (Acta Pharmaceutica Sinica. B, 2025).

Molecular target: Cereblon (CRBN) (Homo sapiens, UniProt Q96SW2)
Assay: biochemical
Format: binding

Sequence of Cereblon (CRBN) (Q16531 2-1140): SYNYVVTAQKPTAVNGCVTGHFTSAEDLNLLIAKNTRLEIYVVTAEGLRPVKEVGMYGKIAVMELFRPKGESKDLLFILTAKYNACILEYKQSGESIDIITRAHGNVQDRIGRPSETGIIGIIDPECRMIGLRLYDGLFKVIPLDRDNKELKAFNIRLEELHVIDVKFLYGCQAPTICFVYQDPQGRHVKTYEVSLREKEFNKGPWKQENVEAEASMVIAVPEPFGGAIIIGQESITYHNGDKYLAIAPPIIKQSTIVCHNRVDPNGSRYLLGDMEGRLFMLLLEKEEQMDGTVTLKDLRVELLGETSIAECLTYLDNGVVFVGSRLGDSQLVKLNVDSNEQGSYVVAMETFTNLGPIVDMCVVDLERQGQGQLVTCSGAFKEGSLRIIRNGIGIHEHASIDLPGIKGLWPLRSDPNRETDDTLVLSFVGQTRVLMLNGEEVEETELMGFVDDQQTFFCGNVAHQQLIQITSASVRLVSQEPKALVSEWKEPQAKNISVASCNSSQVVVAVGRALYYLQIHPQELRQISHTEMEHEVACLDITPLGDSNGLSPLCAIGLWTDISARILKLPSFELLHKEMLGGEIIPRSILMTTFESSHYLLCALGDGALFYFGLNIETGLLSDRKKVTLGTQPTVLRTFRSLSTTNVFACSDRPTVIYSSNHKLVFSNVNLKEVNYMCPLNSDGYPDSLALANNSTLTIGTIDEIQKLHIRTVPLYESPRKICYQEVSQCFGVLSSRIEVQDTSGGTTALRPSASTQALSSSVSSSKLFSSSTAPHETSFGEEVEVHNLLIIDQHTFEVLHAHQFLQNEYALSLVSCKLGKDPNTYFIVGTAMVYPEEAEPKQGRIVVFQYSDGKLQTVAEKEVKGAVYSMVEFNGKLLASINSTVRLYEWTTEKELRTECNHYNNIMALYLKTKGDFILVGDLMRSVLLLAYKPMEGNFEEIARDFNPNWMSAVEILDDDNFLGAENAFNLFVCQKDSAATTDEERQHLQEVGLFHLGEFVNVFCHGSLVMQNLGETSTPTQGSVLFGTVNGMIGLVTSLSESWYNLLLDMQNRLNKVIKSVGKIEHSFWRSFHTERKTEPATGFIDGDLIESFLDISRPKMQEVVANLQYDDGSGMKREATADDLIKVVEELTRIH
Sequence of Cereblon (CRBN) (Q96SW2 whole entry): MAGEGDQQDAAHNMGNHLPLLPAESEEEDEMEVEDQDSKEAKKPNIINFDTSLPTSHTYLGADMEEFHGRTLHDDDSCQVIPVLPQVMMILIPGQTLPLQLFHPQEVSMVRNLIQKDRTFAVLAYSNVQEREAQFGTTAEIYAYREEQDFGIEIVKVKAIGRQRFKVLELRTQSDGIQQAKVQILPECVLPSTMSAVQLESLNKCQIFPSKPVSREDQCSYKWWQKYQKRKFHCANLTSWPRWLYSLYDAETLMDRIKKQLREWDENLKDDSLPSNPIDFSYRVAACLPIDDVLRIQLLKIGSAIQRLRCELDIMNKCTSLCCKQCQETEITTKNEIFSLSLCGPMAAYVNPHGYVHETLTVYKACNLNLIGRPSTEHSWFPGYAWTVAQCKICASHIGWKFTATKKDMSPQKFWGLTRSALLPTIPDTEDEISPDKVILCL

## CO[C@H]1/C=C/O[C@@]2(C)Oc3c(C)c(O)c4c(c3C2=O)C(=O)C=C(NC(=O)/C(C)=C\C=C\[C@H](C)[C@H](O)[C@@H](C)[C@@H](O)[C@@H](C)[C@H](OC(C)=O)[C@@H]1C)C4=O [Rifamycin S]
  IC50: 3.09 µM

## CO[C@H]1/C=C/O[C@@]2(C)Oc3c(C)c(O)c4c(c3C2=O)C2=NC3(CCN(CC(C)C)CC3)NC2=C(NC(=O)/C(C)=C\C=C\[C@H](C)[C@H](O)[C@@H](C)[C@@H](O)[C@@H](C)[C@H](OC(C)=O)[C@@H]1C)C4=O [Rifabutin]
  IC50: 15.8 µM
